US20080286201A1, “Caspase-3 Substrate Comprising Imaging Agents” (priority 2005, published 2008)
Square brackets hold non-standard residues; d marks the D form. Peptide text beside a SMILES is read from it. Tyr(3-I) = N[C@@H](Cc1ccc(O)c(I)c1)C(=O)O; Orn = NCCC[C@H](N)C(=O)O

How the values were obtained:
caspase-3 = target: T1, caspase-3 (Homo sapiens, UniProt P42574); experiment: Caspase-3 assay kit (BIOMOL QuantiZyme Assay System), potency (Ki) of caspase-3 test substrates; format: biochemical
T1 construct: purchased BIOMOL
T1 sequence (P42574 29-175 limits assumed): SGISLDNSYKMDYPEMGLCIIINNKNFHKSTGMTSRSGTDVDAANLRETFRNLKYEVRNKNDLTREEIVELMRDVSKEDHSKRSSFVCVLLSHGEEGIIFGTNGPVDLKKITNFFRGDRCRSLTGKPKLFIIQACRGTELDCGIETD
T1 sequence (P42574 176-277 limits assumed): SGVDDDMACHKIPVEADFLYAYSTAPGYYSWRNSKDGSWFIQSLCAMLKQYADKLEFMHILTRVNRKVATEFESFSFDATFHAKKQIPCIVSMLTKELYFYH
Experimental: Potency (Ki) of the caspase-3 test substrates was evaluated using a commercially available caspase-3 assay kit (BIOMOL QuantiZyme™ Assay System, CASPASE-3 Assay Kit for Drug Discovery). The DEVD substrate sequence was bio-modified with the additional of both tyrosine residues for radiolabelling and leader sequence to aid cell penetration. In vitro potency was maintained following both of these bio-modifications.

[1] = tested on: phosphatidylserine (PS) on the outer membrane of apoptotic cells; details: read-out: affinity of binding to phosphatidylserine; cited from earlier work

Row | Ki (caspase-3) | Molecule | Kd [1]
1 | 7.74 µM | CC(=O)N[C@@H](CC(=O)O)C(=O)N[C@@H](CCC(=O)O)C(=O)N[C@H](C(=O)N[C@@H](CC(=O)O)C(=O)Nc1ccc2c(C)cc(=O)oc2c1)C(C)C [Ac-Asp-Glu-Val-Asp-AMC, reference compound] | 
2 | 7.83 µM | CC(=O)N[C@@H](CC(=O)O)C(=O)N[C@@H](CCC(=O)O)C(=O)N[C@H](C(=O)N[C@@H](CC(=O)O)C(=O)NCC(=O)N[C@@H](Cc1ccc(O)c(I)c1)C(N)=O)C(C)C [Compound 2] (Ac-DEVDG[Tyr(3-I)]-NH2) | 
3 |  | Annexin-5: endogenous human protein (RMM 36 kDa) which binds to phosphatidylserine on apoptotic cells | ~0.001 µM

Row | Molecule | Ki (caspase-3) | Kd [1]
4 | CC(=O)N[C@@H](CCCNC(=N)N)C(=O)N[C@@H](CCCCN)C(=O)N[C@@H](CCCCN)C(=O)N[C@@H](CCCNC(=N)N)C(=O)N[C@@H](CCCNC(=N)N)C(=O)N[C@@H](CCCN)C(=O)N[C@@H](CCCNC(=N)N)C(=O)N[C@@H](CCCNC(=N)N)C(=O)N[C@@H](CCCNC(=N)N)C(=O)NCC(=O)N[C@@H](CC(=O)O)C(=O)N[C@@H](CCC(=O)O)C(=O)N[C@H](C(=O)N[C@@H](CC(=O)O)C(=O)NCC(=O)N[C@@H](CCCCN)C(=O)N[C@@H](CCCCN)C(=O)N[C@@H](Cc1ccc(O)c(I)c1)C(N)=O)C(C)C [Compound 22] (Ac-RKKRR[Orn]RRRGDEVDGKK[Tyr(3-I)]-NH2) | 9.24 µM | 
